Reference: patent publication US7097848B2, “Synergistic insecticidal mixtures” (Bayer Cropscience AG, priority 2002, dated 2006)

What was measured:
Assay type in all cases: in vivo
[1] = test system: green peach aphid (Myzus persicae); experiment: Myzus test (cabbage leaf dip); settings: activity found; for LC50 after 6 days: Table B (Example B)
Source text: (§1) The expected activity for a given combination of two active compounds can be calculated as follows (cf. Carpenter, C. S., “Mammalian Toxicity of 1-naphthyl-N-methylcarbamate [Sevin Insecticide]”, Agricultural and Food Chemistry, Vol. 9, No. 1, pages 30–39, 1961):
(§2) If • Pa is the proportion of active compound A in the mixture, • Pb is the proportion of active compound B in the mixture, • LC50 (or 95)a is the concentration at which 50% (or 95%) of the animals treated with active compound A are killed and • LC50 (or 95)b is the concentration at which 50% (or 95%) of the animals treated with active compound B are killed,
(§3) If the calculated LC50 (or 95) exceeds the value actually obtained and is higher than the confidence interval, the activity of the combination is superadditive, i.e. a synergistic effect exists.
(§4) To produce a suitable preparation of active compound, 1 part by weight of active compound is mixed with the stated amounts of solvent and emulsifier, and the concentrate is diluted with emulsifier-containing water to the desired concentration.
Cabbage leaves (Brassica oleracea), which are heavily infested by the green peach aphid (Myzus persicae) are treated by being dipped into the preparation of active compound of the desired concentration.
After the desired period of time, the killed in % is determined. 100% means that all aphids have been killed. The determined kill rates are inserted into Carpenter's formula.
After the desired period of time, the killed in % is determined. 100% means that all aphids have been killed; 0% means that none of the aphids have been killed. The determined kill rates are inserted into Carpenter's formula.

[2] = test system: caterpillars of the diamondback moths (Plutella xylostella, sensitive strain); experiment: Plutella test, sensitive strain (cabbage leaf dip); settings: activity found
Source text: as §1, §2, §3, §4
Cabbage leaves (Brassica oleracea) are treated by being dipped into the preparation of active compound of the desired concentration and are populated with caterpillars of the diamondback moths (Plutella xylostella, sensitive strain) while the leaves are still moist.
(§5) After the desired period of time, the kill in % is determined. 100% means that all caterpillars have been killed; 0% means that none of the caterpillars have been killed. The determined kill rates are inserted in Carpenter's formula.
(§6) To produce a suitable preparation of active compound, 1 part by weight of active compound is mixed with the stated amounts of solvent emulsifier, and the concentrate is diluted with emulsifier-containing water to the desired concentration.

[3] = test system: larvae of the mustard beetle (Phaedon cochleariae); experiment: Phaedon larvae test (cabbage leaf dip); settings: activity found; for LC50 after 6 days: Table D (Example D)
Source text: as §1, §2, §3, §4
Cabbage leaves (Brassica oleracea) are treated by being dipped into the preparation of active compound of the desired concentration and are populated with larvae of the mustard beetle (Phaedon cochleariae) while the leaves are still moist.
After the desired period of time, the kill in % is determined. 100% means that all beetle larvae have been killed; 0% means that none of the beetle larvae have been killed. The determined kill rates are inserted in Carpenter's formula.
as §6

[4] = test system: cotton aphid (Aphis gossypii); experiment: Aphis gossypii test (cotton leaf dip); settings: Table O (Example O); activity found
Source text: as §1, §2, §3, §4
Cotton leaves (Gossypium hirsutum), which are heavily infested by the cotton aphid (Aphis gossypii) are treated by being dipped into the preparation of active compound of the desired concentration.
After the desired period of time, the killed in % is determined. […] The determined kill rates are inserted into Carpenter's formula.

[5] = test system: Heliothis armigera caterpillars; experiment: Heliothis armigera test (soya bean shoot dip); settings: activity found
Source text: as §1, §2, §3, §4
Soya bean shoots (glycine max) are treated by being dipped into the preparation of active compound of the desired concentration and are populated with Heliothis armigera caterpillars while the leaves are still moist.
After the desired period of time, the kill in % is determined. 100% means that all caterpillars have been killed; 0% means that none of the caterpillars have been killed. The determined kill rates are inserted into Carpenter's formula (see preceding page).
After the desired period of time, the kill in % is determined. 100% means that all caterpillars have been killed; 0% means that none of the caterpillars have been killed. The determined kill rates are inserted into Carpenter's formula.

[6] = test system: caterpillars of the diamondback moths (Plutella xylostella, resistant strain); experiment: Plutella test, resistant strain (cabbage leaf dip); settings: Table M (Example M); activity found
Source text: as §1, §2, §3
To produce a suitable preparation of active compound, 1 part by weight of active compound is mixed with the stated amounts of solvent and emulsifier, and the concentrate is diluted with emulsifier-containing water to the desired concentration. […]
After the desired period of time, the kill in % is determined. […] The determined kill rates are inserted in Carpenter's formula.

[7] = test system: caterpillars of the armyworm (Spodoptera frugiperda); experiment: Spodoptera frugiperda test (cabbage leaf dip); settings: activity found; for LC95 after 3 days: Table E (Example E)
Source text: as §1, §2, §3, §4
Cabbage leaves (Brassica oleracea) are treated by being dipped into the preparation of active compound of the desired concentration and are populated with caterpillars of the armyworm (Spodoptera frugiperda) while the leaves are still moist.
as §5

| Molecule | LC95 after 1 day ([1]; Table P (Example P)) | LC95 after 6 days ([2]; Table R (Example R)) | LC95 after 6 days ([3]; Table Q (Example Q)) | LC95 after 6 days [4] | LC50 after 6 days ([5]; Table F (Example F)) | LC95 after 6 days ([3]; Table G (Example G)) | LC50 after 6 days ([5]; Table A (Example A)) | LC50 after 6 days ([5]; Table J (Example J)) | LC50 after 6 days [1] | LC95 after 1 day ([1]; Table H (Example H)) | LC95 after 6 days ([2]; Table C (Example C)) | LC95 after 6 days ([2]; Table L (Example L)) | LC50 after 6 days [6] | LC50 after 6 days [3] | LC95 after 6 days ([3]; Table K (Example K)) | LC95 after 3 days [7] | LC50 after 6 days ([7]; Table I (Example I)) | LC50 after 6 days ([7]; Table N (Example N)) |
| --- | --- | --- | --- | --- | --- | --- | --- | --- | --- | --- | --- | --- | --- | --- | --- | --- | --- | --- |
| CC1(C)[C@H](C(=O)O[C@H](C#N)c2cccc(Oc3ccccc3)c2)[C@@H]1/C=C(\Cl)C(F)(F)F (racemic) [lambda-cyhalothrin] | 11.234 ppm | 0.09 ppm | 11.234 ppm | 10.545 ppm | – | – | – | – | – | – | – | – | – | – | – | – | – | – |
| CC[C@H](C)[C@H]1O[C@]2(C=C[C@@H]1C)C[C@@H]1C[C@@H](C/C=C(\C)[C@@H](O[C@H]3C[C@H](OC)[C@@H](O[C@H]4C[C@H](OC)[C@@H](O)[C@H](C)O4)[C@H](C)O3)[C@@H](C)/C=C/C=C3\CO[C@@H]4[C@H](O)C(C)=C[C@@H](C(=O)O1)[C@]34O)O2 [avermectin] | – | – | – | – | 0.094 ppm | 1.431 ppm | – | – | – | – | – | – | – | – | – | – | – | – |
| CN/C(=N\[N+](=O)[O-])NCc1cnc(Cl)s1 [clothianidin] | 1.303 ppm | 28.46 ppm | 7.690 ppm | 4.954 ppm | 15.0 ppm | 11.234 ppm | 0.997 ppm | 3.527 ppm | 1.013 ppm | 5.988 ppm | 42.493 ppm | 9.045 ppm | 27.271 ppm | 6.708 ppm | 17.504 ppm | 6.099 ppm | 2.450 ppm | 0.178 ppm |
| CNC(=O)Oc1cc(C)c(SC)c(C)c1 [methiocarb] | – | – | – | – | – | – | – | – | – | 75.000 ppm | – | – | – | – | – | – | 51.649 ppm | – |
| CC1(C)C(C=C(Cl)Cl)C1C(=O)OC(C#N)c1ccc(F)c(Oc2ccccc2)c1 (stereo not drawn) [β-cyfluthrin] | – | – | – | – | – | – | 0.159 ppm | – | 2.583 ppm | – | 0.699 ppm | – | – | 0.646 ppm | – | 1.113 ppm | – | – |
| emamectin benzoate | – | – | – | – | – | – | – | 0.007 ppm | – | – | – | 0.0009 ppm | 0.0012 ppm | – | 0.072 ppm | – | – | 0.003 ppm |
